The text below walks through data of patent US12491204B2, “Use of oleanolic acid-28-O-beta-D-glucopyranoside in preparation of anti-colitis drug” (JILIN UNIVERSITY, priority 2023, dated 2025).

The test system of assay [1] is TNF-α, IL-6, and iNOS in Caco-2 cells. As to the kind of experiment: Inflammatory factors TNF-α, IL-6, iNOS by ELISA in LPS-induced Caco-2 cell model. It is filed as cell-based, Human. Particulars: LPS 1 μg/ml, 24 hours; high-dose groups 8 μM. As for the experimental part: (§1) (1) Determination of Transmembrane Epithelial Resistance and Inflammatory Factors in Caco-2 Cells
(§2) The Caco-2 cells were inoculated at a density of 1×10^5 cells/ml (400 μl per well) into a Transwell chamber and cultured under 5% CO2 and 37° C. After Day 21, a medium was replaced with a basal MEM medium. […] Resistance values were measured using a transmembrane resistance meter. TEER value=(measured resistance value−control resistance value)×Transwell chamber area, expressed in Ω·cm^2. […]

The test system of assay [2] is DSS-induced UC model mice. Description: Transmission electron microscope observation of mouse colon tissues. The class given is in vivo, BALB/c male mice. Particulars: 28-OA-β-GH group, 20 mg/kg; compared with model group. As for the experimental part:
(§3) SPF-grade BALB/c male mice (weighting 22-24 g) were purchased from Changchun Yisi Laboratory Animal Technology Co., Ltd. After 1 week of adaptive feeding, the mice were randomly divided into 6 groups (n=10), including: a control group, a model group, a positive drug group (5-ASA, 100 mg/kg), an oleanolic acid-28-O-β-D-glucopyranoside low-dose group (28-OA-β-GL, 5 mg/kg), an oleanolic acid-28-O-β-D-glucopyranoside medium-dose group (28-OA-β-GM, 10 mg/kg), and an oleanolic acid-28-O-β-D-glucopyranoside high-dose group (28-OA-β-GH, 20 mg/kg).
The control group was administrated with distilled water, while the other groups were freely allowed to drink a 3.5% dextran sulfate sodium (M.W.: 40,000 Da, DSS) solution for 7 days to induce a UC model. From the Day 4 to Day 10 of modeling, the mice in the control group and the model group were administrated with distilled water by gavage, while the mice in other groups were administrated with a 5-ASA or 28-OA-β-G solution by gavage, respectively. The gavage was performed once a day. The administration volume was 10 ml/kg. After fasting for 12 hours on the Day 10, whole blood was collected from all mice by using an eyeball blood collection method, the mice were killed by cervical dislocation, and colon tissues and spleen tissues were collected. […]

The test system of assay [3] is DSS-induced UC model mice. As to the kind of experiment: Inflammatory factor and oxidative stress indicators by ELISA in serum and colon of DSS-induced UC model. It is filed as in vivo, BALB/c male mice. Particulars: compared with model group; for IL-6 level / TNF-α level / iNOS level: serum and colon, gavage 5-ASA 100 mg/kg, 28-OA-β-G 5, 10, 20 mg/kg.
Experimental: SPF-grade BALB/c male mice (weighting 22-24 g) were purchased from Changchun Yisi Laboratory Animal Technology Co., Ltd. After 1 week of adaptive feeding, the mice were randomly divided into 6 groups (n=10), including: a control group, a model group, a positive drug group (5-ASA, 100 mg/kg), an oleanolic acid-28-O-β-D-glucopyranoside low-dose group (28-OA-β-GL, 5 mg/kg), an oleanolic acid-28-O-β-D-glucopyranoside medium-dose group (28-OA-β-GM, 10 mg/kg), and an oleanolic acid-28-O-β-D-glucopyranoside high-dose group (28-OA-β-GH, 20 mg/kg). The control group was administrated with distilled water, while the other groups were freely allowed to drink a 3.5% dextran sulfate sodium (M.W.: 40,000 Da, DSS) solution for 7 days to induce a UC model. From the Day 4 to Day 10 of modeling, the mice in the control group and the model group were administrated with distilled water by gavage, while the mice in other groups were administrated with a 5-ASA or 28-OA-β-G solution by gavage, respectively. The gavage was performed once a day. The administration volume was 10 ml/kg. After fasting for 12 hours on the Day 10, whole blood was collected from all mice by using an eyeball blood collection method, the mice were killed by cervical dislocation, and colon tissues and spleen tissues were collected. Content determination of inflammatory factor and oxidative stress indicators: serum and colon tissue samples were collected, and the contents of TNF-α, IL-6, and iNOS in the serum and colon were determined using an ELISA kit, while the levels of MPO, SOD, and MDA in the colon were detected.
The subject of assay [4] is DSS-induced UC model mice. Description: FD4 permeability analysis in DSS-induced UC model. The class given is in vivo, BALB/c male mice. Particulars: 20 mg/kg FD4 by gavage 30 minutes before sacrifice; 28-OA-β-G intervention; compared with model group. As for the experimental part: as §3
The control group was administrated with distilled water, while the other groups were freely allowed to drink a 3.5% dextran sulfate sodium (M.W.: 40,000 Da, DSS) solution for 7 days to induce a UC model. […]
FD4 permeability analysis: all mice were administrated with 20 mg/kg FD4 normal saline solution by gavage 30 minutes before sacrifice, whole blood was collected by the eye blood collection method on a sterile ultra-clean table, and the upper serum was taken after centrifugation, and then aspirated into a black 96-well microplate. The fluorescence intensity was detected using a microplate reader at an excitation wavelength of 492 nm and an emission wavelength of 520 nm. […]

Assay [5] deals with ZO-1, Occludin, Claudin-1, and E-cadherin in Caco-2 cells. Description: Expression of tight junction proteins in Caco-2 cells by immunofluorescence. The class given is cell-based, Human. Particulars: 24 hours. On the procedure:
(2) Determination of Expression Level of Tight Junction Proteins in Caco-2 Cells
Caco-2 cells (1×10^5 cells/ml) were inoculated onto a cell climbing slice in a 24-well plate (with 600 μl of cells per well), and reached confluence within 2 days. The cells were divided into 7 groups: a control group, a model group (LPS 1 μg/ml), a 5-ASA group (LPS 1 μg/ml+5-ASA 50 μM), an LPS+28-OA-β-GL group (LPS 1 μg/ml+28-OA-β-G 2 μM), an LPS+28-OA-β-GM group (LPS 1 μg/ml+28-OA-β-G 4 μM), an LPS+28-OA-β-GH group (LPS 1 μg/ml+28-OA-β-G 8 μM), and a 28-OA-β-G group (28-OA-β-G 8 μM). The control group was added with a MEM medium, while the other groups were added with the corresponding doses of LPS and 28-OA-β-G with the MEN medium as a solvent, and incubated in a 5% CO2, 37° C. constant-temperature incubator for 24 hours. Immunofluorescence imaging was performed after a series of treatments.

Assay [6] has as its system DSS-induced UC model mice. As to the kind of experiment: DSS-induced UC model: body weight, DAI score, colon length, spleen coefficient. It is filed as in vivo, BALB/c male mice. Particulars: for weight loss rate: 3.5% DSS 7 days, gavage once a day Day 4 to Day 10, 28-OA-β-G 5, 10, 20 mg/kg. On the procedure: as §3
The control group was administrated with distilled water, while the other groups were freely allowed to drink a 3.5% dextran sulfate sodium (M.W.: 40,000 Da, DSS) solution for 7 days to induce a UC model. From the Day 4 to Day 10 of modeling, the mice in the control group and the model group were administrated with distilled water by gavage, while the mice in other groups were administrated with a 5-ASA or 28-OA-β-G solution by gavage, respectively. The gavage was performed once a day. The administration volume was 10 ml/kg. After fasting for 12 hours on the Day 10, whole blood was collected from all mice by using an eyeball blood collection method, the mice were killed by cervical dislocation, and colon tissues and spleen tissues were collected.
Body weight and disease activity index scores: during the experiment, all mice were weighed every day, and the general behavior states of the mice were observed; the weight changes, stool states and hematochezia degrees of the mice were recorded every day, and scored according to the criteria shown in Table 3; and an average disease activity index (DAI) score of the mice in each group per day was calculated according to the formula: DAI=(weight loss score+stool state score+hematochezia degree score)/3.
Spleen coefficient: the spleen tissues were dissected and accurately weighed, and the spleen coefficient was calculated using the formula: spleen coefficient=spleen mass (mg)/mouse weight (g), as shown in FIG. 10. The spleen coefficient also reflected the degree of inflammatory response within the body.

Assay [7] relates to Caco-2 cells. As to the kind of experiment: Transmembrane epithelial resistance (TEER) in LPS-induced Caco-2 cells. Particulars: LPS 1 μg/ml + 28-OA-β-G 8 μM, 24 hours; compared with LPS treatment. It is filed as cell-based, Human. As for the experimental part: as §1, §2

For `CC1(C)CC[C@]2(C(=O)O[C@@H]3O[C@H](CO)[C@@H](O)[C@H](O)[C@H]3O)CC[C@]3(C)C(=CC[C@@H]4[C@@]5(C)CC[C@H](O)C(C)(C)[C@@H]5CC[C@]43C)[C@@H]2C1` [28-OA-β-G, Oleanolic acid-28-O-β-D-glucopyranoside], the “anti-inflammatory activity (TNF-α, IL-6, iNOS levels), comparison among compounds” value in assay [1] is “best anti-inflammatory activity among the high-dose administration groups”. Besides, the “ultrastructure of colonic mucosa cells (transmission electron microscope)” value in assay [2] was “restored the integrity of intestinal mucosa cells”. Further, in assay [3] (colon), the MDA level result is “dose-dependently reduce”, the MPO level result is listed as “dose-dependently reduce” and the SOD level result is on record as “increased”. Moreover, in assay [3], the IL-6 level entry is “significantly decreased”, the TNF-α level entry is “significantly decreased” and the iNOS level entry is reported as “significantly decreased”. Besides, the “serum FD4 concentration (FD4 permeability)” value in assay [4] is given as “significantly reduced”. The “distribution on the cell membrane and expression of the four tight junction proteins (ZO-1, Occludin, Claudin-1, E-cadherin)” value in assay [5] (LPS 1 μg/ml + 28-OA-β-G 2, 4, 8 μM, as dose increased) was “regained their normal distribution on the cell membrane and also increase the expression”. Further, the “expression of the four tight junction proteins (ZO-1, Occludin, Claudin-1, E-cadherin)” value in assay [5] (normal cells without LPS, 28-OA-β-G alone 8 μM) is given as “not affected”. Further, in assay [6] (5-ASA 100 mg/kg), the weight loss rate entry is “significantly reduced”. The “weight changes, relation to dose” value in assay [6] (28-OA-β-G 5, 10, 20 mg/kg gavage) is listed as “positively correlated with the increase in dose”. The spleen coefficient entry in assay [6] (28-OA-β-G high-dose group, 20 mg/kg, compared with model group) is on record as “significantly reduced”. Further, the spleen coefficient entry in assay [6] (28-OA-β-G medium-dose group, 10 mg/kg, compared with model group) is “significantly reduced”. The weight changes result in assay [6] (28-OA-β-GH group, 20 mg/kg gavage) was “tended towards the control group”. The “anti-ulcerative-colitis activity (overall conclusion)” value in assay [6] (DSS-induced UC model, compared with positive control 5-ASA) is reported as “significant anti-ulcerative-colitis activity which was not statistically different from that of the positive control group of 5-ASA”. The “DAI score compared to the 5-ASA group” value in assay [6] (Day 10, 28-OA-β-GH group, 20 mg/kg, 5-ASA 100 mg/kg) is reported as “no significant difference compared to the 5-ASA group”. The DAI score result in assay [6] (Day 10, 28-OA-β-GH group, 20 mg/kg, compared with model group) is given as “significantly lower than that in the model group”. The “colon length (degree of colon damage)” value in assay [6] (oral administration of 28-OA-β-G 5, 10, 20 mg/kg, compared with model group) is given as “effectively alleviated”. Besides, the TEER value result in assay [7] is reported as “significantly increased”.
`Nc1ccc(O)c(C(=O)O)c1` [5-ASA, 5-aminosalicylic acid, reference compound]: in assay [3], the IL-6 level entry is on record as “significantly decreased”, the TNF-α level entry is reported as “significantly decreased” and the iNOS level result is on record as “significantly decreased”. In addition, in assay [6] (5-ASA 100 mg/kg), the weight loss rate result was “significantly reduced”. Besides, in assay [6] (positive drug group, 5-ASA 100 mg/kg, compared with model group), the spleen coefficient result is listed as “significantly reduced”.
